Test results taken from US8952024B2, “Herbicidal pyrimidone derivatives” (E I du Pont de Nemours and Company, priority 2009, dated 2015).

What was measured:
Assay in all cases: Test C plant response
Format in all cases: in vivo
Details in all cases: Postemergence, scale 0 to 100
[1] = tested on: green foxtail (Setaria viridis)
In short: (§1)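 Formulation: non-phytotoxic solvent + surfactant. Controlled growth environment, 14 d. Visual rating vs controls, 0 = no effect, 100 = complete control; dash = no result.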

[2] = tested on: oilseed rape (Brassica napus)
In short: as §1

[3] = tested on: chickweed (common chickweed, Stellaria media)
In short: as §1

[4] = tested on: pigweed (Amaranthus retroflexus)
In short: as §1

[5] = tested on: field poppy (Papaver rhoeas)
In short: as §1

[6] = tested on: bluegrass (annual bluegrass, Poa annua)
In short: as §1

[7] = tested on: canarygrass (Phalaris minor)
In short: as §1

[8] = tested on: field violet (Viola arvensis)
In short: as §1

[9] = tested on: blackgrass (Alopecurus myosuroides)
In short: as §1

[10] = tested on: wild radish (Raphanus raphanistrum)
In short: as §1

[11] = tested on: kochia (Kochia scoparia)
In short: as §1

[12] = tested on: wild mustard (Sinapis arvensis)
In short: as §1

[13] = tested on: galium (catchweed bedstraw, Galium aparine)
In short: as §1

[14] = tested on: winter barley (Hordeum vulgare)
In short: as §1

[15] = tested on: wild oat (Avena fatua)
In short: as §1

[16] = tested on: spring barley (Hordeum vulgare)
In short: as §1

[17] = tested on: bromegrass (downy bromegrass, Bromus tectorum)
In short: as §1

[18] = tested on: deadnettle (henbit deadnettle, Lamium amplexicaule)
In short: as §1

[19] = tested on: Russian thistle (Salsola iberica)
In short: as §1

[20] = tested on: Italian ryegrass (Lolium multiflorum)
In short: as §1

3-cyclohexyl-5-[(2-hydroxy-6-oxo-1-cyclohexen-1-yl)carbonyl]-2-phenyl-4(3H)-pyrimidinone [Compound 128]
Plant response rating: Foxtail, Green ([1]; 31 g ai/ha): 95 | Plant response rating: Foxtail, Green ([1]; 16 g ai/ha): 95 | Plant response rating: Foxtail, Green ([1]; 62 g ai/ha): 95 | Plant response rating: Foxtail, Green ([1]; 125 g ai/ha): 95 | Plant response rating: Oilseed Rape ([2]; 31 g ai/ha): 95 | Plant response rating: Oilseed Rape ([2]; 16 g ai/ha): 90 | Plant response rating: Oilseed Rape ([2]; 62 g ai/ha): 98 | Plant response rating: Oilseed Rape ([2]; 125 g ai/ha): 100 | Plant response rating: Chickweed ([3]; 31 g ai/ha): 95 | Plant response rating: Chickweed ([3]; 16 g ai/ha): 95 | Plant response rating: Chickweed ([3]; 62 g ai/ha): 98 | Plant response rating: Chickweed ([3]; 125 g ai/ha): 100 | Plant response rating: Pigweed ([4]; 31 g ai/ha): 95 | Plant response rating: Pigweed ([4]; 16 g ai/ha): 75 | Plant response rating: Pigweed ([4]; 62 g ai/ha): 95 | Plant response rating: Pigweed ([4]; 125 g ai/ha): 98 | Plant response rating: Field Poppy ([5]; 31 g ai/ha): 30 | Plant response rating: Field Poppy ([5]; 16 g ai/ha): 20 | Plant response rating: Field Poppy ([5]; 62 g ai/ha): 40 | Plant response rating: Field Poppy ([5]; 125 g ai/ha): 70 | Plant response rating: Bluegrass ([6]; 31 g ai/ha): 35 | Plant response rating: Bluegrass ([6]; 62 g ai/ha): 65 | Plant response rating: Bluegrass ([6]; 125 g ai/ha): 80 | Plant response rating: Canarygrass ([7]; 31 g ai/ha): 5 | Plant response rating: Canarygrass ([7]; 16 g ai/ha): 5 | Plant response rating: Canarygrass ([7]; 62 g ai/ha): 10 | Plant response rating: Canarygrass ([7]; 125 g ai/ha): 10 | Plant response rating: Field Violet ([8]; 31 g ai/ha): 0 | Plant response rating: Field Violet ([8]; 16 g ai/ha): 0 | Plant response rating: Field Violet ([8]; 62 g ai/ha): 35 | Plant response rating: Field Violet ([8]; 125 g ai/ha): 35 | Plant response rating: Blackgrass ([9]; 31 g ai/ha): 20 | Plant response rating: Blackgrass ([9]; 16 g ai/ha): 20 | Plant response rating: Blackgrass ([9]; 62 g ai/ha): 35 | Plant response rating: Blackgrass ([9]; 125 g ai/ha): 35 | Plant response rating: Radish, Wild ([10]; 31 g ai/ha): 95 | Plant response rating: Radish, Wild ([10]; 16 g ai/ha): 95 | Plant response rating: Radish, Wild ([10]; 62 g ai/ha): 95 | Plant response rating: Radish, Wild ([10]; 125 g ai/ha): 95 | Plant response rating: Kochia ([11]; 31 g ai/ha): 90 | Plant response rating: Kochia ([11]; 16 g ai/ha): 70 | Plant response rating: Kochia ([11]; 62 g ai/ha): 95 | Plant response rating: Kochia ([11]; 125 g ai/ha): 98 | Plant response rating: Mustard, Wild ([12]; 31 g ai/ha): 98 | Plant response rating: Mustard, Wild ([12]; 16 g ai/ha): 98 | Plant response rating: Mustard, Wild ([12]; 62 g ai/ha): 98 | Plant response rating: Mustard, Wild ([12]; 125 g ai/ha): 100 | Plant response rating: Galium ([13]; 31 g ai/ha): 30 | Plant response rating: Galium ([13]; 16 g ai/ha): 20 | Plant response rating: Galium ([13]; 62 g ai/ha): 65 | Plant response rating: Galium ([13]; 125 g ai/ha): 65 | Plant response rating: Barley, Winter ([14]; 31 g ai/ha): 20 | Plant response rating: Barley, Winter ([14]; 16 g ai/ha): 0 | Plant response rating: Barley, Winter ([14]; 62 g ai/ha): 40 | Plant response rating: Barley, Winter ([14]; 125 g ai/ha): 60 | Plant response rating: Oat, Wild ([15]; 31 g ai/ha): 25 | Plant response rating: Oat, Wild ([15]; 62 g ai/ha): 50 | Plant response rating: Oat, Wild ([15]; 125 g ai/ha): 70 | Plant response rating: Barley, Spring ([16]; 31 g ai/ha): 15 | Plant response rating: Barley, Spring ([16]; 16 g ai/ha): 0 | Plant response rating: Barley, Spring ([16]; 62 g ai/ha): 20 | Plant response rating: Barley, Spring ([16]; 125 g ai/ha): 30 | Plant response rating: Bromegrass, Downy ([17]; 31 g ai/ha): 50 | Plant response rating: Bromegrass, Downy ([17]; 16 g ai/ha): 30 | Plant response rating: Bromegrass, Downy ([17]; 62 g ai/ha): 65 | Plant response rating: Bromegrass, Downy ([17]; 125 g ai/ha): 65 | Plant response rating: Deadnettle ([18]; 31 g ai/ha): 98 | Plant response rating: Deadnettle ([18]; 16 g ai/ha): 95 | Plant response rating: Deadnettle ([18]; 62 g ai/ha): 100 | Plant response rating: Deadnettle ([18]; 125 g ai/ha): 100 | Plant response rating: Russian Thistle ([19]; 31 g ai/ha): 80 | Plant response rating: Russian Thistle ([19]; 16 g ai/ha): 80 | Plant response rating: Russian Thistle ([19]; 62 g ai/ha): 95 | Plant response rating: Russian Thistle ([19]; 125 g ai/ha): 95 | Plant response rating: Ryegrass, Italian ([20]; 31 g ai/ha): 5 | Plant response rating: Ryegrass, Italian ([20]; 16 g ai/ha): 0 | Plant response rating: Ryegrass, Italian ([20]; 62 g ai/ha): 30 | Plant response rating: Ryegrass, Italian ([20]; 125 g ai/ha): 30
